# Source: US20140023611A1 (priority 2010, published 2014)
# Legend:
# human NaP2b (SLC34A2) = target: T1, human NaP2b (SLC34A2) (Homo sapiens, UniProt O95436); assay: Inhibition of NaP2b-mediated Pi (33P) uptake in transfected HEK293 cells, human NaP2b; format: cell-based; details: for IC50: read-out: pIC50 range for human NaP2b (converted)
# T1 construct: host or cells: HEK293
# T1 sequence (O95436 1-690): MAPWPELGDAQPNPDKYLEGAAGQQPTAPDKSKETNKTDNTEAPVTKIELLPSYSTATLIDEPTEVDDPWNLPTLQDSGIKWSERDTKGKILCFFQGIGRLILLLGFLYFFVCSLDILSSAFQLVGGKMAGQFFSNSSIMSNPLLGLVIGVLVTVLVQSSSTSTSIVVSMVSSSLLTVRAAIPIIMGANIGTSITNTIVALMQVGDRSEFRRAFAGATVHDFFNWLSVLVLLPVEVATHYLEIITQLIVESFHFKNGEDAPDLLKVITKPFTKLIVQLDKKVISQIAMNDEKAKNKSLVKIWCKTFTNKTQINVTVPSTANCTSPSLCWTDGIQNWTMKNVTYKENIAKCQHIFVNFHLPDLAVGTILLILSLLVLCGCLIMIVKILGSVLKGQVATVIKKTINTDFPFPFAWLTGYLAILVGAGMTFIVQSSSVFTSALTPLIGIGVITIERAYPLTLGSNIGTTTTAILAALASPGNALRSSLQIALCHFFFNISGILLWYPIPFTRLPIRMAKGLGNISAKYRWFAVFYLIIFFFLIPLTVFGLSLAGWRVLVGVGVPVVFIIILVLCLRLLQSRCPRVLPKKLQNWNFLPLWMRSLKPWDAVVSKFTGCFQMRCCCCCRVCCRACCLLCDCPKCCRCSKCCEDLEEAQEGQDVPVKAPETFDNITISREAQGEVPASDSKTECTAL
# Protocol: HEK293 cells were obtained from the American Type Culture collection and propagated per their instructions. Expression clones for rat and human NaP2b (SLC34A2) were obtained from Open Biosystems (Catalog numbers MRN1768-9510282, and MHS1010-99823026, respectively). The sequence of the human protein was mutated to insert a threonine after residue 37, and to introduce a N39D mutation.
# The rate of phosphate (Pi) uptake into HEK293 cells was measured using a modification of the method described by Mohrmann et al. (Mohrmann, I., Mohrmann, M., Biber, J., and Murer, H. (1986) Am. J. Phys. 250(3 Pt 1):G323-30.) Transfected HEK293 cells were treated with a pharmacological agent to minimize endogenous PiT-mediated phosphate transport activity, such that the only remaining sodium-dependent phosphate transport activity is that which was bestowed by introduction of the NaP2b genes.
# Cells were seeded into 96-well plates at 25,000 cells/well and cultured overnight. Lipofectamine 2000 (Invitrogen) was used to introduce the NaP2b cDNA, and the cells were allowed to approach confluence during a second overnight incubation. […] Cells were then overlayed with either choline uptake buffer or sodium uptake buffer (14 mM Tris, 137 mM sodium chloride, 5.4 mM KCl, 2.8 mM CaCl2, 1.2 mM MgSO4, 100 uM KH2PO4, PiT-silencing agent, 1 mg/mL Bovine Serum Albumin, pH 7.4) containing 6-9 uCi/mL ^33P orthophosphoric acid (Perkin Elmer) and test compound. Each compound was tested at twelve concentrations ranging from 0.1 nM to 30 uM. Assays were run in duplicate.
# After incubation for 3-30 minutes at room temperature, assay mixtures were removed, and the cells were washed twice with ice cold stop solution (137 mM sodium chloride, 14 mM Tris, pH 7.4). Cells were lysed by addition of 20 μL 0.1% Tween 80 followed by 100 μL scintillation fluid, and counted using a TopCount (Perkin Elmer).
# pIC50 (the negative log of the IC50) values of the test compounds were calculated using GraphPad Prism.
# rat NaP2b (SLC34A2) = target: T2, rat NaP2b (SLC34A2) (Rattus norvegicus, UniProt Q9JJ09); assay: Inhibition of NaP2b-mediated Pi (33P) uptake in transfected HEK293 cells, rat NaP2b; format: cell-based; details: 33P Pi uptake, 0.1 mM phosphate, value given as pIC50 range
# T2 construct: host or cells: HEK293
# T2 sequence (Q9JJ09 1-695): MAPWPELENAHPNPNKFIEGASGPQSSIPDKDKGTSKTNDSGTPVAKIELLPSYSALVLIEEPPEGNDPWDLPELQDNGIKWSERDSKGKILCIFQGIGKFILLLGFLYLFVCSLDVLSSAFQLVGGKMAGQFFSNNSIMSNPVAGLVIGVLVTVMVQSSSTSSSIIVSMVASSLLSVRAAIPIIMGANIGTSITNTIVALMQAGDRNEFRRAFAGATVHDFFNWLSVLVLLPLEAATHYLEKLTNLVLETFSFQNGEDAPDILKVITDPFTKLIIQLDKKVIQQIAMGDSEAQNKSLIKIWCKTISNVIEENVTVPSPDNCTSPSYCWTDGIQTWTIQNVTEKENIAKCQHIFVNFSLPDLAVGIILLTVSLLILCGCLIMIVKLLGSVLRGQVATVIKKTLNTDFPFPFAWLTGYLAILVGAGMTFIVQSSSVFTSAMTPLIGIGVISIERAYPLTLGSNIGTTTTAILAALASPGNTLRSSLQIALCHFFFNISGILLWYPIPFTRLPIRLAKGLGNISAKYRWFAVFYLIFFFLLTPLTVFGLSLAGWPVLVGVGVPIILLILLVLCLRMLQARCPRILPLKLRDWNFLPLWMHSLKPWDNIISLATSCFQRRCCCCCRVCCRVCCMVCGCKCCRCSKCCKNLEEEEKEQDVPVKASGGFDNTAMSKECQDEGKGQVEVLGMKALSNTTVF
# Summary of the method: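 The cells transiently expressed NaP2b after Lipofectamine transfection. Each compound was run in duplicate over twelve concentrations, 0.1 nM–30 uM.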
# [1] = Determination of compound Cmax and AUC after oral gavage (plasma LC-MS/MS); format: in vivo, Sprague-Dawley rats; details: Sprague-Dawley, rat, plasma, po
# Protocol: (§1) Sprague-Dawley rats were orally gavaged with test article at a nominal dose of 2.5 or 10 mg/kg and blood was collected at 0.5, 1, 2 and 4 h. Blood samples were processed to plasma using K2EDTA as an anticoaglulant. Plasma samples were treated with acetonitrile containing an internal standard, precipitated proteins removed by centrifugation. Supernatants were analyzed by LC-MS/MS and compound concentrations were determined by interpolation from a standard curve prepared in plasma. All compounds were orally dosed at the dosage shown, and pharmacokinetic parameters determined.
# as §1, with “interpolated” for “interpolation”
# as §1, with “interpolated” for “interpolation”
# [2] = Structure (II) examples, Table 6, actual oral dose 7.6-11 mg/kg
# [3] = Structure (III) examples, Table 6, actual oral dose 8.9-10 mg/kg
# [4] = Structure (I) examples, Table 15, actual oral dose 3-15 mg/kg, plasma 0.5-4 h
Molecule,IC50 (rat NaP2b (SLC34A2)) [µM],"AUC [1, 4] [ng·h/mL]","Cmax [1, 4] [ng/mL]",other results
"16-(3-(4-(16-(3-(4-(diethylamino)-2-(4-(3-(trifluoromethyl)benzylcarbamoyl)pyridin-2-yl)phenylcarbamoyl)phenyl)-4,7,10,13-tetraoxahexadecane)piperazine-1-carbonyl)phenyl)-4,7,10,13-tetraoxahexadecan-1-oic acid [Example 293]",,,,"pIC50 range for human NaP2b (human NaP2b (SLC34A2); 33P Pi uptake, transfected HEK293 cells, 0.1 mM phosphate, value given as pIC50 range): 5.1-6.0; pIC50 range for rat Nap2b (rat NaP2b (SLC34A2)): 5.1-6.0"
"CN(CCO)C(=O)c1cccc(C(=O)Nc2ccc(N3CCCCC3)cc2-c2cc(C(=O)NC3CCCc4ccccc43)ccn2)c1 (stereo in doubt) [Example 115, (S)—N^1-(2-hydroxyethyl)-N′-methyl-N^3-(4-(piperidin]-yl)-2-(4-((1,2,3,4-tetrahydronaphthalen-1-yl)carbamoyl)pyridin-2-yl)phenyl)isophthalamide]",< 1,,,IC50 (human NaP2b (SLC34A2)): < 1 µM
"O=C(O)CCSCc1cccc(C(=O)Nc2ccc(N3CCCCC3)cc2-c2cc(NCc3cccc(C(F)(F)F)c3)ncn2)c1 [Example 3.1, 3-((3-((4-(Piperidin-1-yl)-2-(6-((3-(trifluoromethyl)benzyl)amino)pyrimidin-4-yl)phenyl)carbamoyl)benzyl)thio)propanoic acid]",1 to 7.94,,,IC50 (human NaP2b (SLC34A2)): 1 to 7.94 µM
"COc1ccc(CNc2cc(-c3cc(N4CCCCC4)ccc3NC(=O)c3cccc(CSCCC(=O)O)c3)ncn2)cc1OC [Example 3.6, 3-((3-((2-(6-((3,4-Dimethoxybenzyl)amino)pyrimidin-4-yl)-4-(piperidin-1-yl)phenyl)carbamoyl)benzyl)thio)propanoic acid]",10 to 31.6,,,IC50 (human NaP2b (SLC34A2)): 10 to 31.6 µM
O=C(O)CCSCc1cccc(C(=O)Nc2ccc(N3CCCCC3)cc2C(=O)Nc2ccn(-c3cccc(C(F)(F)F)c3)n2)c1 [Example 7],,,,"AUC [1, 2]: 467 ng·h/mL; Cmax [1, 2]: 393 ng/mL"
CN(CCN1CCOCC1)C(=O)c1cccc(C(=O)Nc2ccc(N3CCCCC3)cc2C(=O)Nc2ccn(-c3cccc(C(F)(F)F)c3)n2)c1 [Example 11],,,,"AUC [1, 2]: 9.8 ng·h/mL; Cmax [1, 2]: 5 ng/mL"
CN(CCN1CCOCC1)C(=O)c1cccc(C(=O)Nc2ccc(N3CCCCC3)cc2C(=O)Nc2cnc(-c3ccccc3)nc2)c1 [Example 11],,,,"AUC [1, 3]: 140 ng·h/mL; Cmax [1, 3]: 70 ng/mL"
CN(CCOCCOCCOCCC(=O)O)C(=O)c1cccc(C(=O)Nc2ccc(N3CCCCC3)cc2C(=O)Nc2ccn(-c3cccc(C(F)(F)F)c3)n2)c1 [Example 15],,,,"AUC [1, 2]: 11 ng·h/mL; Cmax [1, 2]: 10 ng/mL"
CN(CCN1CCOCC1)C(=O)c1cccc(C(=O)Nc2ccc(OC3CCC3)cc2-c2cc(C(=O)NCc3cccc(C(F)(F)F)c3)ccn2)c1 [Example 26],,< 30,< 30,
O=C(O)CCOCCOCCOCCNC(=O)Cc1cccc(SCc2cccc(C(=O)Nc3ccc(N4CCCCC4)cc3C(=O)Nc3ccn(-c4cccc(C(F)(F)F)c4)n3)c2)c1 [Example 26],,,,"Cmax [1, 2]: 3 ng/mL"
O=C(O)CCCNC(=O)Cc1cccc(SCc2cccc(C(=O)Nc3ccc(N4CCCCC4)cc3-c3cc(C(=O)NCc4cccc(C(F)(F)F)c4)ccn3)c2)c1 [Example 141],1 to 7.94,> 50,> 50,
"COCCOCCOCCOCCOCCOCCOCCOCCNC(=O)[C@@H]1CCCN1CCN(C)C(=O)c1cccc(C(=O)Nc2ccc(N3CCCCC3)cc2-c2cc(C(=O)N[C@H]3CCCc4ccccc43)ccn2)c1 [Example 195, N^1-(2-((S)-2-(2,5,8,11,14,17,20,23-octaoxapentacosan-25-ylcarbamoyl)pyrrolidin-1-yl)ethyl)-N-methyl-N^3-(4-(piperidin-1-v)-2-(4-(((S)-1,2,3,4-tetrahydronaphthalen-1-yl)carbamoyl)pyridin-2-yl)phenyl)isophthalamide]",1 to 7.94,< 10,< 10,
"COCCN(C)C(=O)N1CCN(CCN(C)C(=O)c2cccc(C(=O)Nc3ccc(N4CCCCC4)cc3-c3cc(C(=O)NCc4cccc(C(F)(F)F)c4)ccn3)c2)CC1 [Example 211, N1-(2-(4-((2-methoxyethyl)(methyl)carbamoyl)piperazin-1-yl)ethyl)-N1-methyl-N3-(4-(piperidin-1-yl)-2-(4-(3-(trifluoromethyl)benzylcarbamoyl)pyridin-2-yl)phenyl)isophthalamide]",1 to 7.94,< 30,< 10,
"CN(C)C(=O)C1CCN(CCN(C)C(=O)c2cccc(C(=O)Nc3ccc(N4CCCCC4)cc3-c3cc(C(=O)N[C@H]4CCCc5ccccc54)ccn3)c2)CC1 [Example 218, (S)—N1-(2-(4-(dimethylcarbamoyl)piperidin-1-yl)ethyl)-N1-methyl-N3-(4-(piperidin-1-yl)-2-(4-(1,2,3,4-tetrahydronaphthalen-1-ylcarbamoyl)pyridin-2-yl)phenyl)isophthalamide]",1 to 7.94,< 30,< 10,
"CN(CCOCCOCCOCCC(=O)O)C(=O)c1cccc(C(=O)Nc2ccc(N3CCCCC3)cc2-c2cc(C(=O)N[C@H]3CCCc4ccccc43)ccn2)c1 [Example 249, 3-[2-(2-{2-[N-methyl-1-(3-{[4-(piperidin-1-yl)-2-(4-{[(1S)-1,2,3,4-tetrahydronaphthalen-1-yl]carbamoyl}pyridin-2-yl)phenyl]carbamoyl}phenyl)formamido]ethoxy}ethoxy)ethoxy]propanoic acid]",1 to 7.94,< 30,< 10,
